Source: ChEMBL document CHEMBL3351907, “Design, synthesis and biological evaluation of benzyl 2-(1H-imidazole-1-yl) pyrimidine analogues as selective and potent Raf inhibitors” (Bioorg Med Chem Lett, 2014)
The source made the active and inactive calls. No cut-off for these calls is given here.

Columns and labels:
[1] = (§1) Cytotoxicity against human A375P cells assessed as cell viability after 24 hrs by MTT assay; type: functional
[2] = (§2) Cytotoxicity against human U937 cells assessed as cell viability after 24 hrs by MTT assay; type: functional; conditions: U-937, 24 h
[3] = system: A375P; assay: as §1; type: functional
[4] = system: U-937; assay: as §2; type: functional
[5] = target: Tyrosine-protein kinase SYK (Homo sapiens) (UniProt P43405); assay: Inhibition of SYK (unknown origin) at 10 uM
[6] = target: Proto-oncogene tyrosine-protein kinase ROS (Homo sapiens) (UniProt P08922); assay: Inhibition of ROS/ROS1 (unknown origin) at 10 uM
[7] = target: Macrophage-stimulating protein receptor (Homo sapiens) (UniProt Q04912); assay: Inhibition of RON/MST1R (unknown origin) at 10 uM
[8] = target: T1, RAF proto-oncogene serine/threonine-protein kinase (Homo sapiens, UniProt P04049); assay: Inhibition of RAF1 (unknown origin) at 10 uM
[9] = target: Serine/threonine-protein kinase PLK1 (Homo sapiens) (UniProt P53350); assay: Inhibition of PLK1 (unknown origin) at 10 uM
[10] = species: Homo sapiens; assay: Inhibition of PKA (unknown origin) at 10 uM
[11] = target: T2, Mitogen-activated protein kinase 14 (Homo sapiens, UniProt Q16539); assay: Inhibition of P38a/MAPK14 (unknown origin) at 10 uM
[12] = target: Serine/threonine-protein kinase mTOR (Homo sapiens) (UniProt P42345); assay: Inhibition of mTOR/FRAP1 (unknown origin) at 10 uM
[13] = target: Dual specificity mitogen-activated protein kinase kinase 1 (Homo sapiens) (UniProt Q02750); assay: Inhibition of MEK1 (unknown origin) at 10 uM
[14] = target: Tyrosine-protein kinase Lyn (Homo sapiens) (UniProt P07948); assay: Inhibition of LYN (unknown origin) at 10 uM
[15] = target: Tyrosine-protein kinase Lck (Homo sapiens) (UniProt P06239); assay: Inhibition of LCK (unknown origin) at 10 uM
[16] = target: Mitogen-activated protein kinase 10 (Homo sapiens) (UniProt P53779); assay: Inhibition of JNK3 (unknown origin) at 10 uM
[17] = target: Tyrosine-protein kinase JAK3 (Homo sapiens) (UniProt P52333); assay: Inhibition of JAK3 (unknown origin) at 10 uM
[18] = target: Insulin-like growth factor 1 receptor (Homo sapiens) (UniProt P08069); assay: Inhibition of IGF1R (unknown origin) at 10 uM
[19] = target: Glycogen synthase kinase-3 beta (Homo sapiens) (UniProt P49841); assay: Inhibition of GSK3b (unknown origin) at 10 uM
[20] = target: Macrophage colony-stimulating factor 1 receptor (Homo sapiens) (UniProt P07333); assay: Inhibition of FMS (unknown origin) at 10 uM
[21] = target: Receptor-type tyrosine-protein kinase FLT3 (Homo sapiens) (UniProt P36888); assay: Inhibition of FLT3 (unknown origin) at 10 uM
[22] = target: Fibroblast growth factor receptor 3 (Homo sapiens) (UniProt P22607); assay: Inhibition of FGFR3 (unknown origin) at 10 uM
[23] = target: Mitogen-activated protein kinase 3 (Homo sapiens) (UniProt P27361); assay: Inhibition of ERK1 (unknown origin) at 10 uM
[24] = target: Epidermal growth factor receptor (Homo sapiens) (UniProt P00533); assay: Inhibition of EGFR (unknown origin) at 10 uM
[25] = target: Cyclin-dependent kinase 1/cyclin B1 (Homo sapiens) (UniProt P06493+P14635); assay: Inhibition of CDK1/cyclin B (unknown origin) at 10 uM; type: protein-complex assay
[26] = target: Proto-oncogene tyrosine-protein kinase Src (Homo sapiens) (UniProt P12931); assay: Inhibition of c-Src (unknown origin) at 10 uM
[27] = target: Hepatocyte growth factor receptor (Homo sapiens) (UniProt P08581); assay: Inhibition of c-MET (unknown origin) at 10 uM
[28] = target: Mast/stem cell growth factor receptor Kit (Homo sapiens) (UniProt P10721); assay: Inhibition of c-Kit (unknown origin) at 10 uM
[29] = target: Tyrosine-protein kinase BTK (Homo sapiens) (UniProt Q06187); assay: Inhibition of BTK (unknown origin) at 10 uM
[30] = target: Aurora kinase A (Homo sapiens) (UniProt O14965); assay: Inhibition of Aurora A (unknown origin) at 10 uM
[31] = target: ALK tyrosine kinase receptor (Homo sapiens) (UniProt Q9UM73); assay: Inhibition of ALK (unknown origin) at 10 uM
[32] = target: RAC-alpha serine/threonine-protein kinase (Homo sapiens) (UniProt P31749); assay: Inhibition of AKT1 (unknown origin) at 10 uM
[33] = target: Tyrosine-protein kinase ABL1 (Homo sapiens) (UniProt P00519); assay: Inhibition of ABL1 (unknown origin) at 10 uM
[34] = target: T3, Serine/threonine-protein kinase B-raf (Homo sapiens, UniProt P15056); assay: Inhibition of BRAF (unknown origin)
[35] = target: Serine/threonine-protein kinase B-raf (Homo sapiens, UniProt P15056, V600E); assay: Inhibition of BRAF V599E mutant (unknown origin)
[36] = target: T2, Mitogen-activated protein kinase 14; assay: Inhibition of P38a/MAPK14 (unknown origin)
[37] = target: T1, RAF proto-oncogene serine/threonine-protein kinase; assay: Inhibition of cRAF1 (unknown origin) at 10 uM
[38] = system: Serine/threonine-protein kinase B-raf (Homo sapiens), P15056 [V600E]; conditions: 10 uM
Description: Inhibition of BRAF V599E mutant (unknown origin) at 10 uM

[39] = target: T3, Serine/threonine-protein kinase B-raf; conditions: 10 uM
Description: Inhibition of BRAF (unknown origin) at 10 uM

[40] = target: Focal adhesion kinase 1 (Homo sapiens) (UniProt Q05397); assay: Inhibition of FAK/PTK2 (unknown origin) at 10 uM

T2 sequence (Q16539 whole entry): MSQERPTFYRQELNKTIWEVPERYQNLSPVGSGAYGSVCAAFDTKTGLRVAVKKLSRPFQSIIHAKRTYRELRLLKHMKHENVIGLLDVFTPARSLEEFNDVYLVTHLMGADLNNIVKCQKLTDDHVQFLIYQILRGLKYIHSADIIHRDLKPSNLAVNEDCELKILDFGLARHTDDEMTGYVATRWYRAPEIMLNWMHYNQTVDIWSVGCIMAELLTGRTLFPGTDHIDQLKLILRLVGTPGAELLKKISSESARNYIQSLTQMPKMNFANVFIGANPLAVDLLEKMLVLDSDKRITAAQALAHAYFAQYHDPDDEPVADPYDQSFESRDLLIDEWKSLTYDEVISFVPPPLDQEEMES
T3 sequence (P15056 whole entry): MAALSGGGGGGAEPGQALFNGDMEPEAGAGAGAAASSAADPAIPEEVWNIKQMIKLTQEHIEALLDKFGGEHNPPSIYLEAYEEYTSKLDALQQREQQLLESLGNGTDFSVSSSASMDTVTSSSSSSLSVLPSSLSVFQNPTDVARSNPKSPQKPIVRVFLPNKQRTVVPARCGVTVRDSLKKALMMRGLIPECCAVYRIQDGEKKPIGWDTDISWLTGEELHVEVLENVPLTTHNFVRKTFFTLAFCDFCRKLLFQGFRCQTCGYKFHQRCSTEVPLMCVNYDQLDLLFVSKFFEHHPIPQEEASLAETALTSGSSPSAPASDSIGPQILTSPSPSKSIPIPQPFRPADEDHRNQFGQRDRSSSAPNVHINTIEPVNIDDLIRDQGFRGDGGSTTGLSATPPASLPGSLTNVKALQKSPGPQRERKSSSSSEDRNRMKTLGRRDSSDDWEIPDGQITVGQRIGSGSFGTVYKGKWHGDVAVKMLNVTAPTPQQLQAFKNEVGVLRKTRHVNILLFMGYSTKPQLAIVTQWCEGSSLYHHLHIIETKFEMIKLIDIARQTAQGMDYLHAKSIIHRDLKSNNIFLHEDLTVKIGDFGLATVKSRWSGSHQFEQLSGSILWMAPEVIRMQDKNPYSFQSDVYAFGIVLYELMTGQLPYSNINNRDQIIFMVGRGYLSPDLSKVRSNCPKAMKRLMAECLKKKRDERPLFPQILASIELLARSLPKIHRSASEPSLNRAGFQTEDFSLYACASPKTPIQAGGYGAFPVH
T1 sequence (P04049 whole entry): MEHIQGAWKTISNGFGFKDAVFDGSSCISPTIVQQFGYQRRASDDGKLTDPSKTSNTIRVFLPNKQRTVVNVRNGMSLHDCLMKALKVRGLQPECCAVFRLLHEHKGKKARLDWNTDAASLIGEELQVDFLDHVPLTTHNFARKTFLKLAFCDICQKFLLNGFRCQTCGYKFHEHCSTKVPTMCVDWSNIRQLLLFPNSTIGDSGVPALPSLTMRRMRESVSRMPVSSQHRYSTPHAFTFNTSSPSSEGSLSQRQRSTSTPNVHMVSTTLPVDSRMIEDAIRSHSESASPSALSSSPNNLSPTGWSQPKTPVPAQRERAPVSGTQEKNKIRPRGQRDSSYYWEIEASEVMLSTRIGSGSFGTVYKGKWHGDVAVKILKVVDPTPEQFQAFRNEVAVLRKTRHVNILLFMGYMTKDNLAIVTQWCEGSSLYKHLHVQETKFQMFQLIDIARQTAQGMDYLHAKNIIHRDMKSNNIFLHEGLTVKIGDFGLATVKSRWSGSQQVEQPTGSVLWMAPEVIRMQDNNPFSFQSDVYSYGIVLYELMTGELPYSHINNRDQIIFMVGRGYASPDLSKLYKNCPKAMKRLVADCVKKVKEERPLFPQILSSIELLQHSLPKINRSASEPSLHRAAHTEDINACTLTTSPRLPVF
Sequence of Tyrosine-protein kinase Lck (Homo sapiens) (P06239 2-509 limits assumed): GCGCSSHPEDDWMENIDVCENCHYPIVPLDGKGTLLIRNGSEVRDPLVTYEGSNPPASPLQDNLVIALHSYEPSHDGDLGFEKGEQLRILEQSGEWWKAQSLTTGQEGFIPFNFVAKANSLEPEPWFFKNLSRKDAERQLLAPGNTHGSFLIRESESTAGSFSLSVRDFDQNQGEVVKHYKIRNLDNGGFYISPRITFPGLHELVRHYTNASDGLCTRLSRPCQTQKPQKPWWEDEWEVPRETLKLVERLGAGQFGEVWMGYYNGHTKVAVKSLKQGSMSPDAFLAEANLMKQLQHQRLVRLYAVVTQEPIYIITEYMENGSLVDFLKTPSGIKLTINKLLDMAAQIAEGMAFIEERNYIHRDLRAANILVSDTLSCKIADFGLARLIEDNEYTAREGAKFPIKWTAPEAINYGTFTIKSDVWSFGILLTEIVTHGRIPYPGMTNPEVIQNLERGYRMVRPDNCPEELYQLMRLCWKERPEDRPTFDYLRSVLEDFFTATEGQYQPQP
Sequence of Tyrosine-protein kinase BTK (Homo sapiens) (Q06187 whole entry): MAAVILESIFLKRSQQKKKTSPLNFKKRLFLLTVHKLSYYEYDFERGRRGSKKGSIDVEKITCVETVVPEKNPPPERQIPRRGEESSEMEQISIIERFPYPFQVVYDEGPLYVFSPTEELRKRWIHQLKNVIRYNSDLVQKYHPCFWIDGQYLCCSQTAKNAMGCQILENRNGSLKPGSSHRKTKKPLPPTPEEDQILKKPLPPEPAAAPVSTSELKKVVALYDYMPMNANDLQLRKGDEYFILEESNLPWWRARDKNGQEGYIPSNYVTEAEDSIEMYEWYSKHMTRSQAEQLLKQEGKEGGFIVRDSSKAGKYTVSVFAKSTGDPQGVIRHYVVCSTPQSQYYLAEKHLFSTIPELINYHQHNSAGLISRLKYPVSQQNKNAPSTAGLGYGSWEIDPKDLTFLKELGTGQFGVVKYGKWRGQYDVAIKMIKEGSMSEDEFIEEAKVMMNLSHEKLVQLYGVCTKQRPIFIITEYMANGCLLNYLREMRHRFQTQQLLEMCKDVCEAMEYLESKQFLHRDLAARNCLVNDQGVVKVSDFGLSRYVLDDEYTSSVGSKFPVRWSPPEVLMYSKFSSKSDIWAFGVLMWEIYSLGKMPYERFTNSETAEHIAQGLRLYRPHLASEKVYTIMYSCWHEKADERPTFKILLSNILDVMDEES
Sequence of Proto-oncogene tyrosine-protein kinase Src (Homo sapiens) (P12931 2-536 limits assumed): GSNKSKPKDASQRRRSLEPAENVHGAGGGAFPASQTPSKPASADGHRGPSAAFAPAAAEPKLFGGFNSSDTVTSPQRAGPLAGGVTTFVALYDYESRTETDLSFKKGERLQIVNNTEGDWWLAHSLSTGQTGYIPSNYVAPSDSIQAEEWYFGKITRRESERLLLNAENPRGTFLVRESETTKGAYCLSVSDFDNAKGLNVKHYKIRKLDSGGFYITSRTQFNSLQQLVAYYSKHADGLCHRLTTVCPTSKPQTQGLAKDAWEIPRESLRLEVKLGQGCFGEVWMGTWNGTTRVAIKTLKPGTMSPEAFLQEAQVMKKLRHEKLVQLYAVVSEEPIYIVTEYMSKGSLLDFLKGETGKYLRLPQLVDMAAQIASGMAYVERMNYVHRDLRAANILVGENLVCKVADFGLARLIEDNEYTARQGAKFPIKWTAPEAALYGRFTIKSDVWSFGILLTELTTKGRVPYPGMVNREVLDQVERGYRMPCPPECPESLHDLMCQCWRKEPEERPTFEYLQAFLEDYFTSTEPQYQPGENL
Sequence of Serine/threonine-protein kinase B-raf (Homo sapiens, UniProt P15056, V600E) (P15056 2-766 V600E limits assumed): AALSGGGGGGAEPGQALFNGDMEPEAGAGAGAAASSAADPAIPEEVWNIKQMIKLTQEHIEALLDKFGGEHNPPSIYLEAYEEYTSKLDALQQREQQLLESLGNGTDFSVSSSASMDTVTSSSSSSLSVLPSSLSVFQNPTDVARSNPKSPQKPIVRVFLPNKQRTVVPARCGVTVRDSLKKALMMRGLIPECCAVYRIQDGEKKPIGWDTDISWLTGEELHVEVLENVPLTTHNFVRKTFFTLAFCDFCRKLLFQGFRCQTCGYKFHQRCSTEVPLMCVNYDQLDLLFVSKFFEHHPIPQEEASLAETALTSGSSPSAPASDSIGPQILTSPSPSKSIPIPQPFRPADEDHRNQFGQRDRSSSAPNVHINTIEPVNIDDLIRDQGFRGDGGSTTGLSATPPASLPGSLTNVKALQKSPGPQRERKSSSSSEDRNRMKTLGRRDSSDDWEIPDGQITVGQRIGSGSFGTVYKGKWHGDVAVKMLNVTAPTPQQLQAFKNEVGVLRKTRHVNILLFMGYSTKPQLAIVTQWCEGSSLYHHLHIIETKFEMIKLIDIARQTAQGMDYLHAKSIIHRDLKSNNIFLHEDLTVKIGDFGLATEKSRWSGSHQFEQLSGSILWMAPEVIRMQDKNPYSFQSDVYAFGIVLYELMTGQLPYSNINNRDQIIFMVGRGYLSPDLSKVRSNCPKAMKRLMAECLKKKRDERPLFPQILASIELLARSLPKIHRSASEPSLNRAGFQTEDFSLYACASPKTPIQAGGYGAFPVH
Sequence of Mitogen-activated protein kinase 10 (Homo sapiens) (P53779 whole entry): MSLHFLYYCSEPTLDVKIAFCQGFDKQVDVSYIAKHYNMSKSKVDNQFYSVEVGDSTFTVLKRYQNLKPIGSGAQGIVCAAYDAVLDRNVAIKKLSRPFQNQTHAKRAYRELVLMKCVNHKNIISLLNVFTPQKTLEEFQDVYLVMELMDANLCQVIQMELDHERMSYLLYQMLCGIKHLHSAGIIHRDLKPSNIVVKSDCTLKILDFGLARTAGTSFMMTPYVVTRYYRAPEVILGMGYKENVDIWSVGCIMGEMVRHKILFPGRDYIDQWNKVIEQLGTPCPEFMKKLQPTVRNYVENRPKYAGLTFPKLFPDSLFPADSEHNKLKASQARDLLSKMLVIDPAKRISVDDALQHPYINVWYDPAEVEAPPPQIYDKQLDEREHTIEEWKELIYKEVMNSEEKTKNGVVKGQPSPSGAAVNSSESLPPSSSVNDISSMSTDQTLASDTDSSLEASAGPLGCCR
Sequence of Serine/threonine-protein kinase B-raf (Homo sapiens), P15056 [V600E] (P15056 whole entry V600E): as the sequence (P15056 whole entry) above, with V600E counted along it

C[C@H](O)CNc1nccc(-n2ccnc2C(=O)c2ccc(NC(=O)Nc3ccc(Cl)c(C(F)(F)F)c3)cc2)n1
GI50 [1]: > 30 µM | GI50 [2]: 7.45 µM

CCN1CCN(Cc2ccc(NC(=O)Nc3cccc(Cc4nccn4-c4ccnc(NC[C@H](C)O)n4)c3)cc2C(F)(F)F)CC1
GI50 [1]: > 30 µM | GI50 [2]: > 30 µM

C[C@H](O)CNc1nccc(-n2ccnc2Cc2cccc(NC(=O)c3cnccn3)c2)n1
GI50 [3]: inactive | GI50 [2]: > 30 µM

COc1ccc(-c2ccc(C(=O)Nc3cccc(C(=O)c4nccn4-c4ccnc(NC[C@H](C)O)n4)c3)o2)cc1
GI50 [1]: 9.39 µM | GI50 [2]: 2.55 µM

C[C@H](O)CNc1nccc(-n2ccnc2Cc2cccc(NC(=O)c3cc(N4CCOCC4)cc(C(F)(F)F)c3)c2)n1
GI50 [1]: 6.6 µM | GI50 [2]: 9.7 µM

Cc1cc(C)cc(C(=O)Nc2cccc(Cc3nccn3-c3ccnc(NC[C@H](C)O)n3)c2)c1
GI50 [3]: inactive | GI50 [2]: 16.8 µM

C[C@H](O)CNc1nccc(-n2ccnc2Cc2cccc(NC(=O)c3ccc4ccccc4n3)c2)n1
GI50 [3]: inactive | GI50 [2]: 23.8 µM

C[C@H](O)CNc1nccc(-n2ccnc2Cc2cccc(NC(=O)C(c3ccc(Cl)cc3)c3ccc(Cl)cc3)c2)n1
GI50 [1]: 3.97 µM | GI50 [2]: 3.24 µM

C[C@H](O)CNc1nccc(-n2ccnc2C(=O)c2cccc(NC(=O)c3cccc(C(F)(F)F)c3)c2)n1
GI50 [1]: > 30 µM | GI50 [2]: 3.78 µM

C[C@H](O)CNc1nccc(-n2ccnc2Cc2cccc(NC(=O)Cc3ccc(-c4ccccc4)cc3)c2)n1
GI50 [1]: 11.2 µM | GI50 [2]: 10 µM

C[C@H](O)CNc1nccc(-n2ccnc2C(=O)c2ccc(NC(=O)c3ccc(C(F)(F)F)c(N4CCOCC4)c3)cc2)n1
GI50 [1]: 7.07 µM | GI50 [4]: inactive

C[C@H](O)CNc1nccc(-n2ccnc2Cc2cccc(NC(=O)c3ccc(N4CCOCC4)c(C(F)(F)F)c3)c2)n1
GI50 [3]: inactive | GI50 [4]: inactive

C[C@H](O)CNc1nccc(-n2ccnc2C(=O)c2ccc(NC(=O)c3ccc(Cl)c(C(F)(F)F)c3)cc2)n1
GI50 [1]: > 30 µM | GI50 [2]: > 30 µM

C[C@H](O)CNc1nccc(-n2ccnc2C(=O)c2cccc(NC(=O)c3cc(N4CCOCC4)cc(C(F)(F)F)c3)c2)n1
GI50 [3]: inactive | GI50 [2]: 4.9 µM

C[C@H](O)CNc1nccc(-n2ccnc2C(=O)c2ccc(NC(=O)Nc3ccc(Cl)c(Cl)c3)cc2)n1
GI50 [1]: > 30 µM | GI50 [2]: 11.6 µM

C[C@H](O)CNc1nccc(-n2ccnc2Cc2cccc(NC(=O)c3ccncc3)c2)n1
GI50 [1]: 8.92 µM | GI50 [4]: inactive

C[C@H](O)CNc1nccc(-n2ccnc2Cc2cccc(NC(=O)c3ccccc3Sc3ccccc3C#N)c2)n1
GI50 [3]: inactive | GI50 [2]: 10 µM

CNC(=O)c1cc(Oc2ccc(NC(=O)Nc3ccc(Cl)c(C(F)(F)F)c3)cc2)ccn1 [SORAFENIB]
GI50 [1]: 3.4 µM | GI50 [2]: 2.74 µM

C[C@H](O)CNc1nccc(-n2ccnc2Cc2cccc(NC(=O)c3ccccc3F)c2)n1
GI50 [1]: 7.45 µM | GI50 [2]: > 30 µM

C[C@H](O)CNc1nccc(-n2ccnc2C(=O)c2ccc(NC(=O)c3ccc(Cl)cc3)cc2)n1
GI50 [1]: > 30 µM | GI50 [2]: > 30 µM

C[C@H](O)CNc1nccc(-n2ccnc2C(=O)c2cccc(NC(=O)Nc3ccc(Cl)c(Cl)c3)c2)n1
GI50 [1]: > 30 µM | GI50 [2]: 14.7 µM

C[C@H](O)CNc1nccc(-n2ccnc2Cc2cccc(NC(=O)c3ccc(Cl)c(C(F)(F)F)c3)c2)n1
GI50 [1]: 3.3 µM | GI50 [2]: 6.83 µM

C[C@H](O)CNc1nccc(-n2ccnc2Cc2cccc(NC(=O)Nc3cccc(Cl)c3)c2)n1
GI50 [1]: 26.2 µM | GI50 [2]: 15.3 µM

Cc1c(C)c2c(c(C)c1O)CC[C@](C)(C(=O)Nc1cccc(Cc3nccn3-c3ccnc(NC[C@H](C)O)n3)c1)O2
GI50 [3]: inactive | GI50 [2]: 23.6 µM

C[C@H](O)CNc1nccc(-n2ccnc2Cc2cccc(NC(=O)c3ccc(Cl)cc3)c2)n1
GI50 [1]: 10.2 µM | GI50 [2]: > 30 µM

C[C@H](O)CNc1nccc(-n2ccnc2Cc2cccc(NC(=O)C3Cc4ccccc4N3)c2)n1 (stereo partly specified)
GI50 [1]: > 30 µM | GI50 [2]: 18.5 µM

C[C@H](O)CNc1nccc(-n2ccnc2C(=O)c2cccc(NC(=O)c3cc(N4CCN(C)CC4)cc(C(F)(F)F)c3)c2)n1
GI50 [1]: 27.8 µM | GI50 [4]: inactive

C[C@H](O)CNc1nccc(-n2ccnc2Cc2cccc(NC(=O)c3cnn(-c4ccccc4)c3C(F)(F)F)c2)n1
GI50 [1]: 6.39 µM | GI50 [2]: 25.8 µM

C[C@H](O)CNc1nccc(-n2ccnc2C(=O)c2cccc(NC(=O)Nc3ccc(Cl)cc3)c2)n1
GI50 [1]: > 30 µM | GI50 [2]: > 30 µM

C[C@H](O)CNc1nccc(-n2ccnc2Cc2cccc(NC(=O)c3ccc(-c4ccccc4)cc3)c2)n1
GI50 [1]: 0.6 µM | GI50 [2]: 1.68 µM

CC(=O)N1CCC(C(=O)Nc2cccc(Cc3nccn3-c3ccnc(NC[C@H](C)O)n3)c2)CC1
GI50 [3]: inactive | GI50 [4]: inactive

C[C@H](O)CNc1nccc(-n2ccnc2C(=O)c2ccc(NC(=O)c3cccc(Cl)c3)cc2)n1
GI50 [1]: > 30 µM | GI50 [2]: > 30 µM

C[C@H](O)CNc1nccc(-n2ccnc2C(=O)c2cccc(NC(=O)c3ccc(Cl)cc3)c2)n1
GI50 [1]: > 30 µM | GI50 [2]: > 30 µM

C[C@H](O)CNc1nccc(-n2ccnc2Cc2cccc(NC(=O)c3cc(N4CCN(C)CC4)cc(C(F)(F)F)c3)c2)n1
GI50 [1]: 12.3 µM | GI50 [2]: > 30 µM

C[C@H](O)CNc1nccc(-n2ccnc2Cc2cccc(NC(=O)Cc3c[nH]c4ccccc34)c2)n1
GI50 [1]: > 30 µM | GI50 [2]: > 30 µM

C[C@H](O)CNc1nccc(-n2ccnc2C(=O)c2ccc(NC(=O)c3cc(N4CCN(C)CC4)cc(C(F)(F)F)c3)cc2)n1
GI50 [1]: 5.92 µM | GI50 [4]: inactive

C[C@H](O)CNc1nccc(-n2ccnc2Cc2cccc(NC(=O)Nc3ccc(Cl)c(C(F)(F)F)c3)c2)n1
GI50 [1]: 1.82 µM | GI50 [2]: 2.73 µM | inhibition [5]: 0% | inhibition [6]: 0.73% | inhibition [7]: 0.42% | inhibition [8]: 98.7% | inhibition [9]: 9.9% | inhibition [10]: 0% | inhibition [11]: 94.3% | inhibition [12]: 0% | inhibition [13]: 0% | inhibition [14]: 8.1% | inhibition [15]: 5.8% | inhibition [16]: 0% | inhibition [17]: 0% | inhibition [18]: 0% | inhibition [19]: 34.5% | inhibition [20]: 33.6% | inhibition [21]: 68.4% | inhibition [22]: 3.5% | inhibition [23]: 0% | inhibition [24]: 0% | inhibition [25]: 34.8% | inhibition [26]: 2.1% | inhibition [27]: 17.6% | inhibition [28]: 63.8% | inhibition [29]: 0% | inhibition [30]: 17.6% | inhibition [31]: 4.9% | inhibition [32]: 12.9% | inhibition [33]: 6.9% | IC50 [34]: 0.186 µM | IC50 [35]: 0.0383 µM | IC50 [36]: 0.571 µM | IC50 [37]: 0.00879 µM | inhibition [38]: 96.1% | inhibition [39]: 99.9% | inhibition [40]: 1.2%

C[C@H](O)CNc1nccc(-n2ccnc2Cc2cccc(NC(=O)Nc3ccc(Cl)c(Cl)c3)c2)n1
GI50 [1]: 19.2 µM | GI50 [2]: 1.73 µM

C[C@H](O)CNc1nccc(-n2ccnc2C(=O)c2cccc(NC(=O)c3cccc(Cl)c3)c2)n1
GI50 [1]: > 30 µM | GI50 [2]: > 30 µM

C[C@H](O)CNc1nccc(-n2ccnc2Cc2cccc(NC(=O)c3ccccc3-c3ccccc3)c2)n1
GI50 [3]: inactive | GI50 [4]: inactive
